Assay results taken from patent US9290451B2 (Hoffmann-La Roche Inc., priority 2011, dated 2016).
Like-named read-outs stand apart in the source and are kept apart here.

Experiments:
human CB1 receptors = human CB1 receptors (Homo sapiens (Human), UniProt P21554); assay: cAMP assay, CHO cells expressing human CB1 receptors; assay type: cell-based
In short: (§1)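 Agonist EC50 values come from cAMP levels measured in intact CHO cells. Compounds act for 30 min at 30 °C in the presence of 1 mM IBMX, and cAMP is then detected by time-resolved energy transfer after lysis.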

human CB2 receptors = human CB2 receptors (Homo sapiens (Human), UniProt P34972); assay: cAMP assay, CHO cells expressing human CB2 receptors; assay type: cell-based
Chain of human CB2 receptors (P34972 whole entry): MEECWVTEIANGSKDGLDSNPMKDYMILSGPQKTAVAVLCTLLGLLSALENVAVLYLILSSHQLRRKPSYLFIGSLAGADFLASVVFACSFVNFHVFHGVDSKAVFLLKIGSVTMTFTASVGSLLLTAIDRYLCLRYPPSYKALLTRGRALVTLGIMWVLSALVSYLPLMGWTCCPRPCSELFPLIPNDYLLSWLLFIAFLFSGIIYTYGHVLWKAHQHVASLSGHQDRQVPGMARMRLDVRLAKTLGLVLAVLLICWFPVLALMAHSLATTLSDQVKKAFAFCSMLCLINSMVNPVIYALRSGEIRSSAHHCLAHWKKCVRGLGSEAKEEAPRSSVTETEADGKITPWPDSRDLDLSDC
In short: as §1

[1] = CHO cells expressing human CB1, cAMP, read-out: human CB1 EC50
[2] = CHO cells expressing human CB2, cAMP, read-out: human CB2 EC50

Chain of human CB1 receptors (P21554 whole entry): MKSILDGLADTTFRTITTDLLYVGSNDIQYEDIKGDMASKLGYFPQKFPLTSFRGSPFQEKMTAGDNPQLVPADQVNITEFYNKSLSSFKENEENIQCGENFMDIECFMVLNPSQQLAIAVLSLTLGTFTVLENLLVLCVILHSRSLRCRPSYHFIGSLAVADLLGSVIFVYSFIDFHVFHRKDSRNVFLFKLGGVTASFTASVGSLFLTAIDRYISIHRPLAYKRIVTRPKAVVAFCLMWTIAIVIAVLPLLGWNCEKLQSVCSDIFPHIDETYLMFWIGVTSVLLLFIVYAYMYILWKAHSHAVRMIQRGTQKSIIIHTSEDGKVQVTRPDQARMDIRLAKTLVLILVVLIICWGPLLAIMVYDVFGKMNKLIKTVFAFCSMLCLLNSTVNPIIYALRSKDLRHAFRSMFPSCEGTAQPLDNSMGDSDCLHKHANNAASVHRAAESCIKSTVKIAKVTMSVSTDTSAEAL

Compound | EC50 (human CB1 receptors; [1]) [µM] | EC50 (human CB2 receptors; [2]) [µM] | EC50 (human CB1 receptors) [µM] | EC50 (human CB2 receptors) [µM]
CC1(COc2nc(C(=O)NC(C)(C)c3nccs3)ccc2Br)COC1 [Example 280, 5-Bromo-6-(3-methyl-oxetan-3-ylmethoxy)-pyridine-2-carboxylic acid (1-methyl-1-thiazol-2-yl-ethyl)-amide] | 1.49 | 0.118 |  | 
CC(C)C[C@H](CO)NC(=O)c1ccc(C2CC2)c(OCC2CC2)n1 [Example 174, (R)-5-Cyclopropyl-6-(cyclopropylmethoxy)-N-(1-hydroxy-4-methylpentan-2-yl)picolinamide] | > 10 | 0.032 |  | 
NC(=O)[C@@H](NC(=O)c1ccc(C2CC2)c(OCC2CC2)n1)c1ccccc1 [Example 172, (S)-N-(2-Amino-2-oxo-1-phenylethyl)-5-cyclopropyl-6-(cyclopropylmethoxy)picolinamide] | > 10 | 0.0101 |  | 
Cc1nc(C(C)(CC2CC2)NC(=O)c2ccc(N3CC(F)(F)C3)c(OCC3CC3)n2)no1 (stereo not drawn) [Example 341, 6-Cyclopropylmethoxy-5-(3,3-difluoro-azetidin-1-yl)-pyridine-2-carboxylic acid [2-cyclopropyl-1-methyl-1-(5-methyl-[1,2,4]oxadiazol-3-yl)-ethyl]-amide] | > 10 | 0.0084 |  | 
Cc1nc(C(CC(C)C)NC(=O)c2ccc(N3CC(F)(F)C3)c(OCC3CC3)n2)no1 (stereo not drawn) [Example 272, 6-Cyclopropylmethoxy-5-(3,3-difluoro-azetidin-1-yl)-pyridine-2-carboxylic acid [3-methyl-1-(5-methyl-[1,2,4]oxadiazol-3-yl)-butyl]-amide] |  |  | > 10 | 0.0043
CC(C)(CCS(C)(=O)=O)NC(=O)c1ccc(C2CC2)c(OCC2CC2)n1 [Example 349, 5-Cyclopropyl-6-cyclopropylmethoxy-pyridine-2-carboxylic acid (3-methanesulfonyl-1,1-dimethyl-propyl)-amide] | > 10 | 0.477 |  | 
Cc1nc([C@H](CC2CC2)NC(=O)c2ccc(C3CC3)c(Cc3ccc(F)cc3)n2)no1 [Example 327, 5-Cyclopropyl-6-(4-fluoro-benzyl)-pyridine-2-carboxylic acid [(S)-2-cyclopropyl-1-(5-methyl-[1,2,4]oxadiazol-3-yl)-ethyl]-amide] | 0.0136 | 0.0011 |  | 
Cc1nc([C@H](CC2CC2)NC(=O)c2ccc(C3CC3)c(OCC3CC3)n2)no1 [Example 163, 5-Cyclopropyl-6-cyclopropylmethoxy-pyridine-2-carboxylic acid [(S)-2-cyclopropyl-1-(5-methyl-[1,2,4]oxadiazol-3-yl)-ethyl]-amide] | > 10 | 0.0145 |  | 
CNC(=O)[C@H](CC(C)C)NC(=O)c1cccc(-c2ccccc2)n1 [Example 205, (S)-N-(4-Methyl-1-(methylamino)-1-oxopentan-2-yl)-6-phenylpicolinamide] | > 10 | 0.0578 |  | 
O=C(c1ccc(N2CCCC2)c(OCC2CC2)n1)N1CCS(=O)(=O)CC1 [Example 15] | > 10 | 0.0959 |  | 
CCC(CC)(NC(=O)c1ccc(C(F)(F)F)c(OCC2CCCO2)n1)C(=O)N(C)C (stereo not drawn) [Example 264, 6-(Tetrahydro-furan-2-ylmethoxy)-5-trifluoromethyl-pyridine-2-carboxylic acid (1-dimethylcarbamoyl-1-ethyl-propyl)-amide] | 0.602 | 0.0027 |  | 
CC(C)(NC(=O)c1ccc(Cl)c(-c2cccc(Cl)c2)n1)c1ncco1 [Example 104, 5-Chloro-6-(3-chloro-phenyl)-pyridine-2-carboxylic acid (1-methyl-1-oxazol-2-yl-ethyl)-amide] | > 10 | 0.517 |  | 
CCC(CC)(NC(=O)c1ccc(C2CC2)c(OCC2CCCO2)n1)C(=O)NC (stereo not drawn) [Example 250, 5-Cyclopropyl-6-(tetrahydro-furan-2-ylmethoxy)-pyridine-2-carboxylic acid (1-ethyl-1-methylcarbamoyl-propyl)-amide] | > 10 | 0.0095 |  | 
CC(C)(NC(=O)c1cccc(-c2cccc(Cl)c2)n1)c1nccs1 [Example 12, 6-(3-Chloro-phenyl)-pyridine-2-carboxylic acid (1-methyl-1-thiazol-2-yl-ethyl)-amide] | > 10 | 0.105 |  | 
CNC(=O)[C@H](CC(C)C)NC(=O)c1cccc(-c2cccc(C(F)(F)F)c2)n1 [Example 211, (S)-N-(4-Methyl-1-(methylamino)-1-oxopentan-2-yl)-6-(3-(trifluoromethyl)phenyl)picolinamide] | > 10 | 0.0571 |  | 
Cc1nc([C@H](CC2CC2)NC(=O)c2cccc(-c3cccc(F)c3)n2)no1 [Example 347, 6-(3-Fluoro-phenyl)-pyridine-2-carboxylic acid [(S)-2-cyclopropyl-1-(5-methyl-[1,2,4]oxadiazol-3-yl)-ethyl]-amide] | > 10 | 0.05 |  | 
COC(=O)C1CCCCC1NC(=O)c1cccc(C2CCCCC2)n1 (stereo not drawn) [Example 92, 2-[(6-Cyclohexyl-pyridine-2-carbonyl)-amino]-cyclohexanecarboxylic acid methyl ester] | > 10 | 0.32 |  | 
CC(C)C[C@H](NC(=O)c1ccc(Cl)c(-c2cccc(Cl)c2)n1)C(N)=O [Example 105, 5-Chloro-6-(3-chloro-phenyl)-pyridine-2-carboxylic acid ((S)-1-carbamoyl-3-methyl-butyl)-amide] | > 10 | 0.208 |  | 
COCCOc1nc(C(=O)N[C@@H](CC(C)C)C(N)=O)ccc1N1CC(F)(F)C1 [Example 158, 5-(3,3-Difluoro-azetidin-1-yl)-6-(2-methoxy-ethoxy)-pyridine-2-carboxylic acid ((S)-1-carbamoyl-3-methyl-butyl)-amide] | > 10 | 0.0229 |  | 
Cc1nc(C(C)(C)NC(=O)c2ccc(C3CC3)c(OCC3CCCO3)n2)no1 (stereo not drawn) [Example 166, 5-Cyclopropyl-6-(tetrahydro-furan-2-ylmethoxy)-pyridine-2-carboxylic acid [1-methyl-1-(5-methyl-[1,2,4]oxadiazol-3-yl)-ethyl]-amide] | > 10 | 0.0305 |  | 
Cc1nc(C(NC(=O)c2ccc(C3CC3)c(OCC3CCOCC3)n2)C2CC2)no1 (stereo not drawn) [Example 219, 5-Cyclopropyl-6-(tetrahydro-pyran-4-ylmethoxy)-pyridine-2-carboxylic acid [cyclopropyl-(5-methyl-[1,2,4]oxadiazol-3-yl)-methyl]-amide] | 2.14 | 0.0108 |  | 
Cc1nc(C(NC(=O)c2ccc(C(F)(F)F)c(OCC3CC3)n2)C2CC2)no1 (stereo not drawn) [Example 229, 6-Cyclopropylmethoxy-5-trifluoromethyl-pyridine-2-carboxylic acid [cyclopropyl-(5-methyl-[1,2,4]oxadiazol-3-yl)-methyl]-amide] | > 10 | 0.0524 |  | 
Cc1cnc(C(C)(C)NC(=O)c2ccc(C3CC3)c(OCC3CC3)n2)s1 [Example 350, 5-Cyclopropyl-6-cyclopropylmethoxy-pyridine-2-carboxylic acid [1-methyl-1-(5-methyl-thiazol-2-yl)-ethyl]-amide] | > 10 | 0.0036 |  | 
CC(C)C[C@H](NC(=O)c1ccc(N2CC(F)(F)C2)c(-c2cccc(Cl)c2)n1)C(N)=O [Example 140, 6-(3-Chloro-phenyl)-5-(3,3-difluoro-azetidin-1-yl)-pyridine-2-carboxylic acid ((S)-1-carbamoyl-3-methyl-butyl)-amide] | > 10 | 0.305 |  | 
